Source: patent US8729258B2, “Luminescent macrocyclic lanthanide complexes” (The Regents of the University of California, priority 2006, dated 2014)

What was measured:
[1] = Kinetic stability of Tb complexes in various media at room temperature; details: 5 nM Tb-complex, various media incl. 1% acetic acid and 1 mM EDTA, 0.05% Tween-80, room temperature
Experimental: In order to investigate the stability of macrocyclic ligands further, the stabilities of different Tb-complexes were determined using a variety of different media, including 1% acetic acid and 1 mM EDTA. […] Each stock solution was then diluted 200× into different test solutions in polypropylene microcentrifuge tubes to a final concentration of 5 nM Tb-complex. Each test solution also contained 0.05% Tween-80. The test solutions were allowed to incubate at room temperature. Samples were taken at indicated time points, evaluated in triplicate and luminescence was recorded using standard time-resolved luminescence settings and 340 nm and 490 excitation and emission filters, respectively.

streptavidin = streptavidin (Streptomyces avidinii, UniProt P22629); assay: Non-specific interaction with protein (streptavidin), consecutive G50 gel filtration spin columns; format: binding; details: second and third consecutive gel filtration spin columns after conjugation of activated ester to streptavidin
Experimental: It was therefore important to determine the tendency of the novel ligands to non-specifically interact with proteins. Sulfo-NHS ester and NHS ester derivatives of compound 5 were synthesized and conjugated to streptavidin. For comparison, the NHS ester of ligand 2 was also conjugated to streptavidin. Streptavidin was equilibrated in carbonate buffer, pH 9, at a concentration of approximately 130 μM. A DMF solution of the activated esters of each ligand was added to the protein at a final concentration of approximately 1 mM. The mixtures were allowed to incubate at 4° C. for 1 h. The metal is added either before or after conjugation of the ligand to the protein. Non-conjugated ligand was separated from conjugated protein using a G50 gel filtration centrifugal spin column technique (Penefsky, H. S, Methods Enzymol 1979, 56:527-30). This technique dilutes protein solutions to a lesser extent than conventional gel filtration techniques. Consecutive spin columns were run on a single protein sample solution to evaluate the extent of non-specific absorption of ligand. Following a single gel filtration separation, most of the excess ligand is removed and left at the top of the gel bed. A second spin column treatment should leave no further ligand at the top of the second column unless non-covalent association of the ligand with the protein occurs.

Sequence of streptavidin (P22629 25-183): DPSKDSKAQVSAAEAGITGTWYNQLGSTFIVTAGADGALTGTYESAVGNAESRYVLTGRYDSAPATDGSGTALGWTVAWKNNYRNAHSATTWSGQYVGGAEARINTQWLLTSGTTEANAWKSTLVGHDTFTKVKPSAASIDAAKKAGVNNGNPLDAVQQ

SMILES	stability of terbium complex compared to non-restrained ligand (1) [1]	residual luminescence of ligand left at the top of the gel bed (streptavidin)
O=C(O)CCCC(=O)NCCCCC1CN2CCNC(=O)c3cccc(c3O)C(=O)NCCN(CCNC(=O)c3cccc(c3O)C(=O)N1)CCN1CCNC(=O)c3cccc(c3O)C(=O)NCCN(CCNC(=O)c3cccc(c3O)C(=O)NCC1)CC2 (stereo not drawn) [compound 5a, GlutarLysBH(2,2)IAM]	significant increase in stability	–
NCCN1CCNC(=O)c2cccc(c2O)C(=O)NCCN(CCNC(=O)c2cccc(C(N)=O)c2O)CCN2CCNC(=O)c3cccc(c3O)C(=O)NCCN(CCNC(=O)c3cccc(c3O)C(=O)NCC2)CC1 [compound 3]	significant increase in stability	–
CNC(=O)c1cc(C(=O)NC)c(O)c(C(=O)NCCN(CCNC(=O)c2cc(C(=O)NC)cc(C(=O)NC)c2O)CCN(CCNC(=O)c2cc(C(=O)NC)cc(C(=O)NC)c2O)CCNC(=O)c2cc(C(=O)NCCC(=O)O)cc(C(=O)NC)c2O)c1 [compound 2, reference compound]	–	high degree of residual luminescence
